In patent publication US5032597A, “Method of using phenylquinolinecarboxylic acids and derivatives for lymthoid leukemia treatment in a mammal” (priority 1987, dated 1991):
Converted amounts (≈) assume the structure as drawn. Values belong to the molecule of their own block, whether it stands above or below them.

What was measured:
[1] = system: human colon carcinoma cells HCT-15; test: Human colon tumor test in vitro, HCT-15 cell growth inhibition; type: cell-based; details: HCT-15 cells, compound day 1 to day 4; for IC50: Homo sapiens, HCT-15, 72 h, read-out: in vitro HCT-15 ID50 (50 percent inhibition of number of doublings)
Experimental: The compound of this invention were also tested for their ability to inhibit the growth of human colon carcinoma cells in vitro.
The human colon carcinoma cells, designated HCT-15, were derived from a specimen of an adenocarcinoma of human colon removed during surgery. The cells were grown in Roswell Park Medical Institute (RPMI) Medium 1640 supplemented with 10% heat inactivated fetal calf serum, penicillin (100 units/ml), streptomycin (100 μg/ml), gentamicin (20 μg/ml), fungizone (25 μg/ml), 0.075 percent sodium bicarbonate, […] 4-(2-hydroxyethyl)-1-piperazineethanesulfonic acid and […] N-tris(hydroxymethyl)methylglycine. […] On day 1 cells from sample dishes were harvested using trypsin (0.25%) treatment and counted with a hemocytometer to determine the number of cells per dish at the time of the addition of the compounds. Compounds of this invention were added in varying concentrations to other cultures. On day 4, treated and control cultures were harvested by trypsin treatment and the number of cells was determined. The number of doublings for the control cells was determined from the cell numbers on days 1 and 4. The ID50, the concentration of compound required to inhibit by 50 percent the number of doublings, was then calculated from the dose-response curve in which cell numbers were plotted on log-log paper against compound concentrations in micrograms per ml.

[2] = system: L1210 leukemia; test: Lymphoid Leukemia L1210, survival of tumored mice; type: in vivo, CD2F1 mice
Experimental: The efficacy of the compounds of this invention against the transplanted mouse tumors was evaluated in test systems currently in use at the National Cancer Institute for the detection and assessment of anticancer activity. […] J. Cancer, 17, 129-142, (1981); Venditti, J. M., Seminars in Oncology, 8 (4) (1981); Goldin, A. and J. M. Venditti, in Recent Results in Cancer Research, 70, S. K. Carter and Y. Sakurai, Eds., Springer-Verlag, Berlin/Heidelberg, 1980].
The animals used in this test were CD2 F1 mice, all males weighing a minimum of 18 g and all within a 4 g weight range at the start of the test. The test group consisted of six mice. The tumor was implanted in each of the test mice by the intraperitoneal injection of 0.1 ml of diluted ascitic fluid containing 10^5 cells drawn from a mouse with L1210 leukemia. The test compounds were suspended in hydroxypropylcellulose or saline with Tween® 80 surfactant or dissolved in saline and injected intraperitoneally, at various doses, once daily for nine consecutive days starting on day one relative to the day of tumor inoculation (day 0). The control mice received injections of saline or hydroxypropylcellulose vehicle only. The mice were weighed and survivors were recorded on a regular basis for 30 days. The median survival time and the ratio of the median survival time for the treated (T) and control (C) mice was calculated. […] Drug effectiveness was assessed on the basis of the survival time. Results were expressed as a percentage of the control survival time (Median Survival Time: T/C ×100%). The criterion for effectiveness was determined by: T/C×100≥125 percent.

IC50 [1]: 0.0079 µg/mL (≈ 0.0205 µM)
Structure (SMILES): CCc1cccc(-c2ccc(-c3nc4ccc(F)cc4c(C(=O)O)c3C)cc2)c1 [Example 41]

Structure (SMILES): Cc1c(-c2ccc(-c3ccccc3F)cc2)nc2ccc(F)c(Cl)c2c1C(=O)O [Example 84]
IC50 [1]: < 0.1 µg/mL

IC50 [1]: 0.1 µg/mL (≈ 0.242 µM)
Structure (SMILES): Cc1c(-c2ccc(C3CCCCC3)cc2)nc2ccc(C(F)(F)F)cc2c1C(=O)O [Example 48]

IC50 [1]: < 0.001 µg/mL
Structure (SMILES): Cc1c(-c2ccc(-c3ccccc3)cc2F)nc2ccc(F)cc2c1C(=O)O [Example 208]

Structure (SMILES): Cc1c(-c2ccc(-c3ccccc3F)cc2)nc2ccc(Cl)cc2c1C(=O)O [Example 70]
IC50 [1]: < 0.1 µg/mL

Structure (SMILES): Cc1c(-c2ccc(-c3ccccc3)cc2)nc2cc(Cl)c(Cl)cc2c1C(=O)O [Example 47]
IC50 [1]: 3.2 µg/mL (≈ 7.84 µM)

Structure (SMILES): Cc1c(-c2ccc(C3CCCCC3)cc2)nc2c(Br)cc(Br)cc2c1C(=O)O [Example 46]
IC50 [1]: 0.42 µg/mL (≈ 0.835 µM)

Structure (SMILES): CCN(CC)CCOC(=O)c1c(C)c(-c2ccc(-c3ccccc3F)cc2)nc2ccc(F)cc12 [Example 202]
response vs control in vivo at 59 mg/kg ([2]; Mus musculus, L1210, ip, 720 h, 59 mg/kg i.p., read-out: L1210 Leukemia % T/C (median survival time)): 164%

Structure (SMILES): Cc1c(-c2ccc(Sc3ccccc3)cc2)nc2ccc(Cl)cc2c1C(=O)O [Example 21]
response vs control in vivo at 200 mg/kg ([2]; Mus musculus, L1210, ip, 720 h, 200 mg/kg i.p., read-out: L1210 Leukemia % T/C (median survival time)): 160%

Structure (SMILES): Cc1c(-c2ccc(Oc3ccc(F)cc3)cc2)nc2ccc(F)cc2c1C(=O)O [Example 125]
L1210 Leukemia % T/C (median survival time) ([2]; 150 mg/kg i.p.): 150%

Structure (SMILES): Cc1c(-c2ccc(-c3ccccc3)cc2)nc2cc(Cl)c(F)cc2c1C(=O)O [Example 61]
response vs control in vivo at 75 mg/kg ([2]; Mus musculus, L1210, ip, 720 h, 75 mg/kg i.p., read-out: L1210 Leukemia % T/C (median survival time)): 160%

Structure (SMILES): Cc1ccc(-c2ccc(-c3nc4ccc(F)cc4c(C(=O)O)c3C)cc2)cc1 [Example 120]
response vs control in vivo at 100 mg/kg ([2]; Mus musculus, L1210, ip, 720 h, 100 mg/kg i.p., read-out: L1210 Leukemia % T/C (median survival time)): 132%

Structure (SMILES): Cc1c(-c2ccc(-c3cccc(F)c3)cc2)nc2ccccc2c1C(=O)O [Example 190]
response vs control in vivo at 50 mg/kg ([2]; Mus musculus, L1210, ip, 720 h, 50 mg/kg i.p., read-out: L1210 Leukemia % T/C (median survival time)): 195%

Structure (SMILES): Cc1c(-c2ccc(-c3ccc(F)cc3)cc2)nc2ccc(Cl)cc2c1C(=O)O [Example 23]
response vs control in vivo at 25 mg/kg ([2]; Mus musculus, L1210, ip, 720 h, 25 mg/kg i.p., read-out: L1210 Leukemia % T/C (median survival time)): 159%

Structure (SMILES): Cc1ccc2nc(-c3ccc(-c4ccccc4)cc3)c(C)c(C(=O)O)c2c1 [Example 104]
in vitro HCT-15 ID50 (50 percent inhibition of number of doublings) ([1]; 4320 min): 0.22 µg/mL

Structure (SMILES): Cc1ccc(-c2ccc(-c3nc4ccc(F)cc4c(C(=O)O)c3C)cc2)cc1C [Example 39]
IC50 [1]: < 0.1 µg/mL

Structure (SMILES): Cc1c(-c2ccc(-c3ccccc3)cc2)nc2cc(F)ccc2c1C(=O)O [Example 186]
response vs control in vivo at 45 mg/kg ([2]; Mus musculus, L1210, ip, 720 h, 45 mg/kg i.p., nonoptimal Q1DX9 instead of Q3DX9, read-out: L1210 Leukemia % T/C (median survival time)): 123%

Structure (SMILES): Cc1c(-c2ccc(-c3ccccc3)cc2)nc2ccc(Br)cc2c1C(=O)O [Example 142]
response vs control in vivo at 37.5 mg/kg ([2]; Mus musculus, L1210, ip, 720 h, 37.5 mg/kg i.p., read-out: L1210 Leukemia % T/C (median survival time)): 169%

Structure (SMILES): Cc1c(-c2ccc(-c3ccccc3F)cc2)nc2ccc(F)c(Cl)c2c1C(=O)O [Example 167]
response vs control in vivo at 12.5 mg/kg ([2]; Mus musculus, L1210, ip, 720 h, 12.5 mg/kg i.p., read-out: L1210 Leukemia % T/C (median survival time)): 197%

Structure (SMILES): Cc1c(-c2ccc(-c3ccccc3)cc2)nc2cccc(Cl)c2c1C(=O)O [Example 80]
IC50 [1]: < 0.5 µg/mL

Structure (SMILES): Cc1ccc(-c2ccc(-c3nc4ccc(F)c(Cl)c4c(C(=O)O)c3C)cc2)cc1 [Example 85]
L1210 Leukemia % T/C (median survival time) ([2]; 100 mg/kg i.p.): 184%
